Data from the NIST ThermoML archive (doi:10.1016/j.jct.2007.01.008).
Where “and” joins values, the source holds several entries; their conditions need not be identical. Equal values may be shown once. ± gives the expanded uncertainty stated by the source.

Conditions: for surface tension liquid-gas: Ring tensiometer; for viscosity / mass density: 101.33 kPa, Liquid; for viscosity: Capillary tube (Ostwald / Ubbelohde) method; for mass density: Vibrating tube method

CCC(=O)CC [pentan-3-one]
Conditions	mass density	surface tension liquid-gas [mN/m]	viscosity [mPa·s]
283.15 K	824.27 ± 0.11 kg/m3	26.5 ± 0.4	0.515 ± 0.004
285.15 K	822.28 ± 0.11 kg/m3	26.3 ± 0.4	0.507 ± 0.004
287.15 K	820.3 ± 0.11 kg/m3	26.1 ± 0.4	0.499 ± 0.004
289.15 K	818.31 ± 0.11 kg/m3	26 ± 0.4	0.492 ± 0.004
291.15 K	816.33 ± 0.11 kg/m3	25.8 ± 0.4	0.484 ± 0.003
292.15 K	–	–	0.48 ± 0.003
293.15 K	814.34 ± 0.11 kg/m3	25.6 ± 0.4	0.476 ± 0.003
295.15 K	812.36 ± 0.11 kg/m3	25.4 ± 0.4	0.468 ± 0.003
297.15 K	810.37 ± 0.11 kg/m3	25.2 ± 0.4	0.46 ± 0.003
298.15 K	809.25 ± 0.11 kg/m3 and 810.86 ± 0.11 kg/m3	–	0.458 ± 0.003
299.15 K	808.39 ± 0.11 kg/m3	25 ± 0.4	0.453 ± 0.003
301.15 K	806.4 ± 0.11 kg/m3	24.8 ± 0.4	0.445 ± 0.003
303.15 K	804.42 ± 0.11 kg/m3	24.6 ± 0.4	0.437 ± 0.003
305.15 K	802.43 ± 0.12 kg/m3	24.4 ± 0.4	0.429 ± 0.003
307.15 K	800.45 ± 0.12 kg/m3	24.2 ± 0.4	0.421 ± 0.003
309.15 K	798.46 ± 0.12 kg/m3	24 ± 0.4	0.414 ± 0.003
311.15 K	796.48 ± 0.12 kg/m3	23.8 ± 0.4	0.406 ± 0.003
313.15 K	794.49 ± 0.12 kg/m3	23.6 ± 0.4	0.398 ± 0.003
315.15 K	792.51 ± 0.12 kg/m3	23.4 ± 0.4	0.39 ± 0.003
317.15 K	790.52 ± 0.12 kg/m3	23.3 ± 0.4	0.382 ± 0.003
319.15 K	788.54 ± 0.12 kg/m3	23.1 ± 0.4	0.375 ± 0.003
321.15 K	786.55 ± 0.12 kg/m3	22.9 ± 0.3	0.367 ± 0.003
323.15 K	784.57 ± 0.12 kg/m3	22.7 ± 0.3	0.359 ± 0.003
325.15 K	782.59 ± 0.12 kg/m3	22.5 ± 0.3	0.351 ± 0.003
327.15 K	780.6 ± 0.12 kg/m3	22.3 ± 0.3	0.343 ± 0.003
329.15 K	778.62 ± 0.12 kg/m3	22.1 ± 0.3	0.336 ± 0.003
